According to patent US12485182B2, “Proteoglycan mimetics for enhanced wound healing, angiogenesis, and vascular repair” (The Regents of the University of California, priority 2018, dated 2025):
Blank lines part the entries; values can stand above or below the substance they belong to. Non-standard residues stand in square brackets, D forms with d. No end group written: not given here. AEEA = NCCOCCOCC(=O)O

Assays:
THP-1 monocytes = assay: Attachment of THP-1 monocytes to peptide-treated surfaces; type: cell-based; details: biotin-peptide on Avidin-coated wells
Source text: (§1) FIG. 33. Attachment of cells and platelets to LXW7 and GRGD (SEQ ID NO: 2) treated surfaces. (A) Images of attached HCAECs (left panels), THP-1 monocytes (middle panels) and platelets (right panels) on surfaces treated by D-Biotin (a-c) (control), LXW7 (d-f) or GRGD (SEQ ID NO: 2) (g-i). Scale bars in a, b, d, e, g and h are 50 μm. Scale bars in c, f and i are 20 μm. (B) The number of cells or platelets attached on different treated surfaces were quantified and statistical analyses were performed. Data were expressed as mean±standard deviation: **p<0.01 (n=4).
(§2) Using primary artery-derived ECs and blood-derived EPCs as living probes to screen One-Bead-One-Compound (OBOC) combinatorial peptide libraries, several high-affinity binding ligands against the αvβ3 integrin on the surface of EPCs/ECs were identified. […] The LXW7 peptide, when grafted to surfaces, supports adhesion and spreading of EPCs and human coronary ECs, but not platelets or monocytes. […] After washing with PBS and blocking with 1% BSA wells were ready for cell attachment with 5×10^4 HCAECs or THP-1 monocytes suspended in the respective maintenance medium, or freshly isolated platelets at a density of 5×10^7 platelets/cm^2 incubated for 16 h at 37° C., 5% CO2. […] Quantification of images was performed using the Image J software (NIH).

platelets = assay: Attachment of platelets to peptide-treated surfaces; type: cell-based; details: biotin-peptide on Avidin-coated wells
Source text: as §1, §2

[1] = system: chick chorioallantoic membrane; assay: Ex ovo CAM assay, vascular invasion into collagen gels; type: in vivo; details: both 10 μM and 20 μM embedded gels, vs blank controls
Experimental: For experiments studying vascular invasion into collagen gels, 30 μL collagen I gels with an embedded 3 mm×3 mm nylon mesh (Fisher) were used. 4-5 gels were placed on each CAM, with 2-3 treatment gels of the same type and 2 blank gels as internal controls to correct for embryo variability. In some embryos, the nylon meshes were dyed to improve visualization of the mesh and vessels growing into the gel. Large (4 cm×10 cm) nylon meshes were dyed by reacting in 226 mL of a 77 mM acetic acid (Sigma) solution with 10 drops of green food coloring (McCormick) or 250 μL of 3 mg/mL Evans blue (Alfa Aesar) at 121° C. for 15 minutes in an autoclave, and then cut to 3 mm×3 mm squares for embedding. Gels were imaged daily through a Dino-Eye AM7025X camera installed on a stereomicroscope; for images more than 2 days after gel implantation, 0.25 mL PBS was pipetted on top of gels to help visualize vessels. […]
In an attempt to better visualize new vasculature invading the implanted collagen gels, we injected ˜100 μL 1 mg/mL high molecular weight fluorescent dextran (70 kDa RITC-dextran) into the CAM vessels 7 days after transplantation, cut out integrated collagen gels and surrounding membrane, and imaged with fluorescence microscopy. […]

fibrinogen = target: T1, fibrinogen (Homo sapiens, UniProt P02671+P02675+P02679); assay: Surface binding of biotinylated molecules to fibrinogen (streptavidin-HRP); details: biotinylated molecule, absorbance
T1 construct: purchased Sigma
T1 sequence (P02671 20-629 limits assumed): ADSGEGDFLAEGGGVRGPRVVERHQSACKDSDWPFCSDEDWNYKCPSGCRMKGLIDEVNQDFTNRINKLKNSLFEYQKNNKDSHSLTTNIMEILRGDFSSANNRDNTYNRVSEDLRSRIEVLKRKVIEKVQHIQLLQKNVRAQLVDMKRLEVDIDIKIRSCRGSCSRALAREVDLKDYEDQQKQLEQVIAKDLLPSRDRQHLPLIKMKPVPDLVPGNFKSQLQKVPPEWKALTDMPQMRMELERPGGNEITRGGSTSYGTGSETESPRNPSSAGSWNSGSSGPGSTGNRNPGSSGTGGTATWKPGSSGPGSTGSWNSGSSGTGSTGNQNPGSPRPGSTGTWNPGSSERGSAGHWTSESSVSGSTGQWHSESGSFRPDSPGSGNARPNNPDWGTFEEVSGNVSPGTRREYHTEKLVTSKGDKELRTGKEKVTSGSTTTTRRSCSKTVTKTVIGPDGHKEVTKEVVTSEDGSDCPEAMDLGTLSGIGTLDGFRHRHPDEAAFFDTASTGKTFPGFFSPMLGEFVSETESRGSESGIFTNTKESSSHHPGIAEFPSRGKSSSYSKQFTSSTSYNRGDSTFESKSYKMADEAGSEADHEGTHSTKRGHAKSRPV
T1 sequence (P02675 31-491): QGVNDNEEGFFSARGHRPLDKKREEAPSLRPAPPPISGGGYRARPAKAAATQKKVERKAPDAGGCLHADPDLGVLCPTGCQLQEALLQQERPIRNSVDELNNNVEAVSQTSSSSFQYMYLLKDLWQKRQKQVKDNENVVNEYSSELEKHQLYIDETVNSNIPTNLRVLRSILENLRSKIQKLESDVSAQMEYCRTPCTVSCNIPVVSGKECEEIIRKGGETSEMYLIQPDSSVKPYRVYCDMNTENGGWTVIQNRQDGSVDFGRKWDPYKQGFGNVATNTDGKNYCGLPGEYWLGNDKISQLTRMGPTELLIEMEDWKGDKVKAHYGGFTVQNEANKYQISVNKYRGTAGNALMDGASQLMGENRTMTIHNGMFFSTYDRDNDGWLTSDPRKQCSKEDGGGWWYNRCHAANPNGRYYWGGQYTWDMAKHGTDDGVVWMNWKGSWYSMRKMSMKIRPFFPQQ
T1 sequence (P02679 27-433 limits assumed): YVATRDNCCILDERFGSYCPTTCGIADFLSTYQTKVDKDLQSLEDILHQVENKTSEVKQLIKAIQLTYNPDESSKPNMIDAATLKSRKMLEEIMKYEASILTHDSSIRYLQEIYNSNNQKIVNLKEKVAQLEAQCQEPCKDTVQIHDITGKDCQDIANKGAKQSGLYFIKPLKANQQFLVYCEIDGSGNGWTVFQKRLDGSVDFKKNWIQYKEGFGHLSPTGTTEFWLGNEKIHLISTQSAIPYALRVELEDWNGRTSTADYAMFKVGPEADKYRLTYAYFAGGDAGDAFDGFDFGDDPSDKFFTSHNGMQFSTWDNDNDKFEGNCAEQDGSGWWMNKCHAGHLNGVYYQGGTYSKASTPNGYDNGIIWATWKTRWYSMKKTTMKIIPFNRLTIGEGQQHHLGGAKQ
Experimental: (§3) High-binding 96-well plates (Corning) were coated with 50 μg/mL rat tail collagen I (Corning) at 4° C. overnight or 2% reduced growth factor Matrigel (Corning #354230) in basal EBM media for 30 minutes at 37° C. and rinsed 3× with PBS before blocking non-specific binding with 1% Bovine Serum Albumin (BSA) for 1 hour at room temperature. For fibrinogen surfaces, a fibrinogen coating solution of ˜2.75 mg/mL fibrinogen (Sigma) and 5.5 μg/mL aprotinin (Sigma) was incubated at 4° C. overnight in high-binding plates. Biotinylated samples dissolved in 1% BSA were allowed to bind to the surface for 30 minutes at 37° C. on a plate shaker. After 3 washes with PBS, wells were incubated with 1:200 streptavidin-HRP in 1% BSA, rinsed 3× with PBS, developed with a 1:1 A to B color solution for 20 minutes, stopped with the addition 2N H2SO4, and read on a Spectramax M5 platereader for absorbance at 450 nm with 540 nm correction.
The ability of DS-SILY4 to bind to various protein surface coatings was investigated using streptavidin-HRP detection of bound biotinylated DS-SILY4 molecules. Here we studied collagen and fibrinogen binding properties of the proteoglycan mimics since this proposed therapy is designed to target angiogenic activity to the wound site by tethering to extracellular matrix. […]

[2] = system: matrigel (collagen IV/laminin); assay: Surface binding of biotinylated molecules to matrigel (streptavidin-HRP); details: for matrigel binding after incubation (deterioration of binding activity over time): after 2 weeks in 1% BSA at room temperature; for matrigel binding affinity (relative): comparison between molecules
Experimental: as §3
(§4) The ability of DS-SILY4 to bind to various protein surface coatings was investigated using streptavidin-HRP detection of bound biotinylated DS-SILY4 molecules. Here we studied collagen and fibrinogen binding properties of the proteoglycan mimics since this proposed therapy is designed to target angiogenic activity to the wound site by tethering to extracellular matrix. Using standard surface coating procedures for collagen (50 μg/mL) and matrigel (2%), ˜7.5 μg/cm^2 rat tail collagen I and ˜28 μg/cm^2 matrigel were allowed to bind to a high bind plate.

collagen I = target: T2, collagen I (Rattus norvegicus, UniProt P02454+P02466); assay: Surface binding of biotinylated molecules to collagen I (streptavidin-HRP); details: for collagen I binding after incubation (deterioration of binding activity over time): after 2 weeks in 1% BSA at room temperature
T2 construct: rat tail collagen I (Corning); purchased Corning; host or cells: rat tail (tissue-extracted)
Experimental: as §3, §4

HMVEC [3] = assay: HMVEC proliferation in response to surface-bound molecules (alamarBlue); type: cell-based, human
Experimental: (§5) 50 μL, treatments dissolved in 1% BSA in PBS were added to a Biocoat Collagen I 96-well plate (Corning) and incubated for 30 minutes at 37° C. before washing 3 times with PBS to remove unbound treatment. […] To evaluate initial attachment, media was aspirated 5-8 hours after seeding and exchanged with alamarBlue® cell viability reagent (1:10, 110 μL/well, Molecular Probes) and incubated for 2.5 hours at 37° C. according to the manufacturers' protocol. 100 μL from each well was pipetted into a new plate and assayed for fluorescence at 560 nm excitation and 590 nm emission. Remaining reagent was aspirated and replaced with fresh media and the alamarBlue® viability assay was performed every 2 days thereafter for 1 week. To control for initial differences in HMVEC attachment, proliferation data is presented as the alamarBlue® fluorescence signal normalized to the signal at 8 hours.
Both soluble and bound forms of molecules would be present in a dynamic equilibrium in this initial experimental design and the two forms may produce differing effects, and thus we sought to investigate the effects of bound molecules alone. Furthermore, the bioactivity of a collagen-bound form would more directly reflect the application of a targeted pro-angiogenic therapy in a chronic wound. […]

HMVEC [4] = assay: HMVEC attachment to surface-bound molecules (alamarBlue); type: cell-based, human; details: low cell densities, both 1 μM and 10 μM surface treatments
Experimental: as §5

T2 sequence (P02454 152-1207 limits assumed): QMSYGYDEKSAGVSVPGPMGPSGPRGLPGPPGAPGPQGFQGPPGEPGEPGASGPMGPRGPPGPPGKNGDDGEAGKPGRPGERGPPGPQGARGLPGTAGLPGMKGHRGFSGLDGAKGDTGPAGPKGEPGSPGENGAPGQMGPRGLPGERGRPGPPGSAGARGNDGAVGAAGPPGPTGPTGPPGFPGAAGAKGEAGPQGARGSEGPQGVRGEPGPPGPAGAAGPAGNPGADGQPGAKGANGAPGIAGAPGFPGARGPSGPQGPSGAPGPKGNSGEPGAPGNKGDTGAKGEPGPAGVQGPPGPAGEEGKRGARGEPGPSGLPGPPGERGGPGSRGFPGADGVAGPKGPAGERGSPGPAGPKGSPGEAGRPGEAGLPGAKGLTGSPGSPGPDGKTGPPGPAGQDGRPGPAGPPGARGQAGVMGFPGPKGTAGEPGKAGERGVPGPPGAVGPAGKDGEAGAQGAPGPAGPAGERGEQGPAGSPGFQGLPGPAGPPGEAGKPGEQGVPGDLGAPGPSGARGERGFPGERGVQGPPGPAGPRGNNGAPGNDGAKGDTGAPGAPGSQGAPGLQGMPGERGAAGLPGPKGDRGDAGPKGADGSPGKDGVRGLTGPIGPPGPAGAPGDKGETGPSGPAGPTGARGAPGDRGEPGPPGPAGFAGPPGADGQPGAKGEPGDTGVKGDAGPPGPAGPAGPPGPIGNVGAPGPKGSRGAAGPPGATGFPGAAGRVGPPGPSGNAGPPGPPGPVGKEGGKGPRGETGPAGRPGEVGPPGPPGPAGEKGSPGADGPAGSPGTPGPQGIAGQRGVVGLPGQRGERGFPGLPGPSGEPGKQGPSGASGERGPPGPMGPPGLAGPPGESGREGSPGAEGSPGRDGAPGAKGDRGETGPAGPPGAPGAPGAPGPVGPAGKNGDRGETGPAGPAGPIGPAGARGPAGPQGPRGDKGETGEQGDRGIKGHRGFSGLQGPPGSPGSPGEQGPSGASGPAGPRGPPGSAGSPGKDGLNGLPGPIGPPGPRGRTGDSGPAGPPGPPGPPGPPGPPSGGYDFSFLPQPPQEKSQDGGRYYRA
T2 sequence (P02466 86-1125 limits assumed): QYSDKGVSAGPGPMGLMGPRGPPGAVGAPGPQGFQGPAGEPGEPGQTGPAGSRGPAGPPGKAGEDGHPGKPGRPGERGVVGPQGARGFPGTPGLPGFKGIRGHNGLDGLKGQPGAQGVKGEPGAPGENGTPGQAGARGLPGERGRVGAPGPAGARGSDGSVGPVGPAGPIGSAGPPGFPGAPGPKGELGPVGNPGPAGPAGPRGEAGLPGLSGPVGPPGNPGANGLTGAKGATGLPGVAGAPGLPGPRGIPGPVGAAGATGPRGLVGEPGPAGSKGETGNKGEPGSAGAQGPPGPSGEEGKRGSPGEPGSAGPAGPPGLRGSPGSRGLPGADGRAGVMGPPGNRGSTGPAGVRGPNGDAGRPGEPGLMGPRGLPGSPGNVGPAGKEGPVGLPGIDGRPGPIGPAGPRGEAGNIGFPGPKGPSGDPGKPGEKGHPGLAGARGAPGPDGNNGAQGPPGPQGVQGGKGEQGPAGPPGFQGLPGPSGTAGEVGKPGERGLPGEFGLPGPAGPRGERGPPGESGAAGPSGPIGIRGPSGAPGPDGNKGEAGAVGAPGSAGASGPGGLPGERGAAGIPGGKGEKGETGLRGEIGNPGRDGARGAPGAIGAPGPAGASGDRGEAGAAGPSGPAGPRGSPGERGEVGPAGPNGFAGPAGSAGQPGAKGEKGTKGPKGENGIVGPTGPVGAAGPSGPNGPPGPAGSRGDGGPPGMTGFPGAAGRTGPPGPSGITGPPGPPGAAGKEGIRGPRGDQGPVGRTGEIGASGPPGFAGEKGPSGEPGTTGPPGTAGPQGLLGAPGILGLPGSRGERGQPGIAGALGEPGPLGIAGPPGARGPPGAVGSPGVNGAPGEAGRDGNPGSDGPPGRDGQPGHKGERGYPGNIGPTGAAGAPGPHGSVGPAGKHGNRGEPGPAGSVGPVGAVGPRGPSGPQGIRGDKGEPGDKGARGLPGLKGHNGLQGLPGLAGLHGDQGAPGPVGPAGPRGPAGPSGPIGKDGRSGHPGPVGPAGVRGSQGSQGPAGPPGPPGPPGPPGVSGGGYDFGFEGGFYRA

Substance: GRGD [RGD peptide, reference compound]
monocyte binding to treated surface (THP-1 monocytes): generally supported monocyte and platelet binding
platelet binding to treated surface (platelets): generally supported monocyte and platelet binding

binding capacity to fibrinogen (fibrinogen): 0.30 AU
binding capacity to collagen IV/laminin ([2]; biotinylated molecule, matrigel coating, absorbance): 1.1 AU
binding capacity to collagen I (collagen I; biotinylated molecule, absorbance): 1.6 AU
Substance: DS-SILY4: decorin mimic composed of a dermatan sulfate backbone and 4 SILY substitutions per DS (RRANAALKAGELYKSILYGSG; also: conjugated to dermatan sulfate, 4 SILY per DS, attachment not given here)
gel vascularity / vascularized gel area [1]: very slight increase in gel vascularity that was not statistically significant over the blank controls
matrigel binding after incubation (deterioration of binding activity over time) [2]: increased matrigel binding capacity after the 2 week incubation
collagen I binding after incubation (deterioration of binding activity over time) (collagen I): this shift was also observed
endothelial proliferation vs untreated collagen (HMVEC [3]; 1 μM surface treatment): only statistically significant over no treatment when compared in media lacking VEGF
endothelial proliferation vs untreated collagen (HMVEC [3]; 10 μM surface treatment): significantly improved proliferation in media with and without VEGF
decrease in HMVEC attachment compared to a BSA blocked collagen surface (HMVEC [4]): 7%

matrigel binding affinity (relative) [2]: similar
Substance: DS-(peg2V)2: dermatan sulfate with 2 peg2V peptides per DS (KLTWQELYQLKYKGI[AEEA][AEEA]GSG; also: conjugated to dermatan sulfate, 2 peg2V per DS, attachment not given here)
collagen I affinity (relative) (collagen I; comparison between molecules): higher affinity for collagen I than DS-SILY4
collagen I binding capacity (relative) (collagen I; comparison between molecules): highest collagen I binding capacity of all the molecules studied

Substance: (peg2V)2-DS-SILY4: pro-angiogenic decorin mimic, 2 peg2V and 4 SILY per DS (peptide 1 KLTWQELYQLKYKGI[AEEA][AEEA]GSG; peptide 2 RRANAALKAGELYKSILYGSG; also: conjugated to dermatan sulfate: 2 peg2V and 4 SILY per DS, attachment not given here)
matrigel binding after incubation (deterioration of binding activity over time) [2]: higher concentrations are needed to achieve the same binding
matrigel binding affinity (relative) [2]: highest collagen I and matrigel affinities
collagen I binding after incubation (deterioration of binding activity over time) (collagen I): higher concentrations are needed to achieve the same binding
collagen I affinity (relative) (collagen I; comparison between molecules): highest collagen I and matrigel affinities
